# PubChem BioAssay AID1963982 (Molecular Pharmacology Branch, DTP, NCI, 2024)
# Tested on: 313798-341-R-J2-PDC spheroids, viability
# Assay: Anticancer human tumor 313798-341-R-J2-PDC patient-derived cervical squamous cell carcinoma cell line growth inhibition [PI3K]
# Conditions: spheroids with HUVEC and MSC; for IC50: curve of first compound; for viability, T/C: stronger effect = lower value
# In short: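 Tumor cells were combined with HUVEC and MSCs into spheroids, then dosed with PI3K-inhibitor combinations over half-log ranges capped near clinical Cmax or 10 microM.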
# [1] = second compound 0.0316 µM, first compound 0.0316 µM
# [2] = second compound 0.0316 µM, first compound 0.1 µM
# [3] = second compound 0.0316 µM, first compound 0.316 µM
# [4] = second compound 0.0316 µM, first compound 1 µM
# [5] = second compound 0.0316 µM, first compound 3.16 µM
# [6] = second compound 0.0316 µM, first compound 10 µM
# [7] = second compound 0.1 µM, first compound 0.0316 µM
# [8] = second compound 0.1 µM, first compound 0.1 µM
# [9] = second compound 0.1 µM, first compound 0.316 µM
# [10] = second compound 0.1 µM, first compound 1 µM
# [11] = second compound 0.1 µM, first compound 3.16 µM
# [12] = second compound 0.1 µM, first compound 10 µM
# [13] = second compound 0.316 µM, first compound 0.0316 µM
# [14] = second compound 0.316 µM, first compound 0.1 µM
# [15] = second compound 0.316 µM, first compound 0.316 µM
# [16] = second compound 0.316 µM, first compound 1 µM
# [17] = second compound 0.316 µM, first compound 3.16 µM
# [18] = second compound 0.316 µM, first compound 10 µM
# [19] = second compound 1 µM, first compound 0.0316 µM
# [20] = second compound 1 µM, first compound 0.1 µM
# [21] = second compound 1 µM, first compound 0.316 µM
# [22] = second compound 1 µM, first compound 1 µM
# [23] = second compound 1 µM, first compound 3.16 µM
# [24] = second compound 1 µM, first compound 10 µM
# [25] = second compound 3.16 µM, first compound 0.0316 µM
# [26] = second compound 3.16 µM, first compound 0.1 µM
# [27] = second compound 3.16 µM, first compound 0.316 µM
# [28] = second compound 3.16 µM, first compound 1 µM
# [29] = second compound 3.16 µM, first compound 3.16 µM
# [30] = second compound 3.16 µM, first compound 10 µM
# [31] = second compound 10 µM, first compound 0.0316 µM
# [32] = second compound 10 µM, first compound 0.1 µM
# [33] = second compound 10 µM, first compound 0.316 µM
# [34] = second compound 10 µM, first compound 1 µM
# [35] = second compound 10 µM, first compound 3.16 µM
# [36] = second compound 10 µM, first compound 10 µM
# 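Note: spheroids exposed to compounds for seven days.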
# 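Throughout, for viability, T/C: 100% = DMSO vehicle control viability.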
smiles,measurement,setting,value
C#Cc1c(F)ccc2cc(O)cc(-c3ncc4c(N5CC6CCC(C5)N6)nc(OCC56CCCN5CC(F)C6)nc4c3F)c12 (stereo not given) + CC(Nc1ncnc2nc[nH]c12)c1cc2cccc(Cl)c2c(=O)n1-c1ccccc1,IC50,second compound 0.0316 µM,> 10 µM
same,IC50,second compound 0.1 µM,> 10 µM
same,IC50,second compound 0.316 µM,> 10 µM
same,IC50,second compound 1 µM,> 10 µM
same,IC50,second compound 3.16 µM,> 10 µM
same,IC50,second compound 10 µM,> 10 µM
same,"viability, T/C",[1],95.5%
same,"viability, T/C",[2],95.7%
same,"viability, T/C",[3],99%
same,"viability, T/C",[4],101%
same,"viability, T/C",[5],101%
same,"viability, T/C",[6],96.9%
same,"viability, T/C",[7],92.5%
same,"viability, T/C",[8],95.8%
same,"viability, T/C",[9],93.2%
same,"viability, T/C",[10],98.3%
same,"viability, T/C",[11],102%
same,"viability, T/C",[12],102%
same,"viability, T/C",[13],95.3%
same,"viability, T/C",[14],104%
same,"viability, T/C",[15],90.9%
same,"viability, T/C",[16],93.9%
same,"viability, T/C",[17],99.1%
same,"viability, T/C",[18],100%
same,"viability, T/C",[19],114%
same,"viability, T/C",[20],99.4%
same,"viability, T/C",[21],90.3%
same,"viability, T/C",[22],94.6%
same,"viability, T/C",[23],104%
same,"viability, T/C",[24],107%
same,"viability, T/C",[25],110%
same,"viability, T/C",[26],97.2%
same,"viability, T/C",[27],94.3%
same,"viability, T/C",[28],101%
same,"viability, T/C",[29],90.4%
same,"viability, T/C",[30],99.9%
same,"viability, T/C",[31],93.2%
same,"viability, T/C",[32],83.9%
same,"viability, T/C",[33],81%
same,"viability, T/C",[34],81.2%
same,"viability, T/C",[35],85.1%
same,"viability, T/C",[36],81.9%
C=CC(=O)N1CCN(c2nc(=O)n(-c3c(C)ccnc3C(C)C)c3nc(-c4c(O)cccc4F)c(F)cc23)C(C)C1 (stereo not given) + CC(Nc1ncnc2nc[nH]c12)c1cc2cccc(Cl)c2c(=O)n1-c1ccccc1,IC50,second compound 0.0316 µM,> 10 µM
same,IC50,second compound 0.1 µM,> 10 µM
same,IC50,second compound 0.316 µM,> 10 µM
same,IC50,second compound 1 µM,> 10 µM
same,IC50,second compound 3.16 µM,> 10 µM
same,IC50,second compound 10 µM,> 10 µM
same,"viability, T/C",[1],112%
same,"viability, T/C",[2],102%
same,"viability, T/C",[3],113%
same,"viability, T/C",[4],100%
same,"viability, T/C",[5],103%
same,"viability, T/C",[6],94.9%
same,"viability, T/C",[7],89.4%
same,"viability, T/C",[8],96.2%
same,"viability, T/C",[9],99.1%
same,"viability, T/C",[10],99.8%
same,"viability, T/C",[11],102%
same,"viability, T/C",[12],102%
same,"viability, T/C",[13],106%
same,"viability, T/C",[14],91.5%
same,"viability, T/C",[15],106%
same,"viability, T/C",[16],98.1%
same,"viability, T/C",[17],104%
same,"viability, T/C",[18],92.9%
same,"viability, T/C",[19],102%
same,"viability, T/C",[20],95.4%
same,"viability, T/C",[21],102%
same,"viability, T/C",[22],90.3%
same,"viability, T/C",[23],98.2%
same,"viability, T/C",[24],102%
same,"viability, T/C",[25],110%
same,"viability, T/C",[26],94.1%
same,"viability, T/C",[27],87.6%
same,"viability, T/C",[28],99.5%
same,"viability, T/C",[29],100%
same,"viability, T/C",[30],91.9%
same,"viability, T/C",[31],87.7%
same,"viability, T/C",[32],85.2%
same,"viability, T/C",[33],98.2%
same,"viability, T/C",[34],84.1%
same,"viability, T/C",[35],90.4%
same,"viability, T/C",[36],78.3%
CC(Cn1ccc(-c2ccc(C#N)c(Cl)c2)n1)NC(=O)c1cc(C(C)O)[nH]n1 (stereo not given) + CC(Nc1ncnc2nc[nH]c12)c1cc2cccc(Cl)c2c(=O)n1-c1ccccc1,IC50,second compound 0.0316 µM,> 10 µM
same,IC50,second compound 0.1 µM,> 10 µM
same,IC50,second compound 0.316 µM,> 10 µM
same,IC50,second compound 1 µM,> 10 µM
same,IC50,second compound 3.16 µM,> 10 µM
same,IC50,second compound 10 µM,> 10 µM
same,"viability, T/C",[1],119%
same,"viability, T/C",[2],103%
same,"viability, T/C",[3],106%
same,"viability, T/C",[4],115%
same,"viability, T/C",[5],101%
same,"viability, T/C",[6],101%
same,"viability, T/C",[7],101%
same,"viability, T/C",[8],105%
same,"viability, T/C",[9],104%
same,"viability, T/C",[10],103%
same,"viability, T/C",[11],98%
same,"viability, T/C",[12],95%
same,"viability, T/C",[13],90.9%
same,"viability, T/C",[14],103%
same,"viability, T/C",[15],96.6%
same,"viability, T/C",[16],101%
same,"viability, T/C",[17],102%
same,"viability, T/C",[18],90%
same,"viability, T/C",[19],113%
same,"viability, T/C",[20],106%
same,"viability, T/C",[21],108%
same,"viability, T/C",[22],101%
same,"viability, T/C",[23],96.2%
same,"viability, T/C",[24],91.5%
same,"viability, T/C",[25],108%
same,"viability, T/C",[26],103%
same,"viability, T/C",[27],100%
same,"viability, T/C",[28],107%
same,"viability, T/C",[29],105%
same,"viability, T/C",[30],93.4%
same,"viability, T/C",[31],87.8%
same,"viability, T/C",[32],88.3%
same,"viability, T/C",[33],94.6%
same,"viability, T/C",[34],100%
same,"viability, T/C",[35],90.8%
same,"viability, T/C",[36],81.7%
Cn1ncc(Cl)c1-c1cc(C(=O)NC(CN)Cc2cccc(F)c2)sc1Cl (stereo not given) + CC(Nc1ncnc2nc[nH]c12)c1cc2cccc(Cl)c2c(=O)n1-c1ccccc1,IC50,second compound 0.0316 µM,0.777 µM
same,IC50,second compound 0.1 µM,0.984 µM
same,IC50,second compound 0.316 µM,1.1 µM
same,IC50,second compound 1 µM,1.08 µM
same,IC50,second compound 3.16 µM,0.79 µM
same,IC50,second compound 10 µM,0.785 µM
same,"viability, T/C",[1],86.5%
same,"viability, T/C",[2],82.8%
same,"viability, T/C",[3],73.1%
same,"viability, T/C",[4],43.1%
same,"viability, T/C",[5],34.9%
same,"viability, T/C",[6],30.9%
same,"viability, T/C",[7],108%
same,"viability, T/C",[8],89.5%
same,"viability, T/C",[9],84.4%
same,"viability, T/C",[10],48.6%
same,"viability, T/C",[11],32.2%
same,"viability, T/C",[12],34.8%
same,"viability, T/C",[13],97.5%
same,"viability, T/C",[14],92.8%
same,"viability, T/C",[15],70.8%
same,"viability, T/C",[16],54.9%
same,"viability, T/C",[17],32.2%
same,"viability, T/C",[18],30.9%
same,"viability, T/C",[19],101%
same,"viability, T/C",[20],88.2%
same,"viability, T/C",[21],77.9%
same,"viability, T/C",[22],47.5%
same,"viability, T/C",[23],38.8%
same,"viability, T/C",[24],29%
same,"viability, T/C",[25],107%
same,"viability, T/C",[26],86.1%
same,"viability, T/C",[27],62.4%
same,"viability, T/C",[28],49.3%
same,"viability, T/C",[29],32.5%
same,"viability, T/C",[30],30.8%
same,"viability, T/C",[31],87%
same,"viability, T/C",[32],78.1%
same,"viability, T/C",[33],67.8%
same,"viability, T/C",[34],46.5%
same,"viability, T/C",[35],27.7%
same,"viability, T/C",[36],25.8%
Cn1nccc1Nc1nccc(-c2ccn(C(CO)c3ccc(Cl)c(F)c3)c(=O)c2)n1 (stereo not given) + CC(Nc1ncnc2nc[nH]c12)c1cc2cccc(Cl)c2c(=O)n1-c1ccccc1,IC50,second compound 0.0316 µM,> 10 µM
same,IC50,second compound 0.1 µM,> 10 µM
same,IC50,second compound 0.316 µM,> 10 µM
same,IC50,second compound 1 µM,> 10 µM
same,IC50,second compound 3.16 µM,> 10 µM
same,IC50,second compound 10 µM,> 10 µM
same,"viability, T/C",[1],92.4%
same,"viability, T/C",[2],94.5%
same,"viability, T/C",[3],90.1%
same,"viability, T/C",[4],99.1%
same,"viability, T/C",[5],91.3%
same,"viability, T/C",[6],95.1%
same,"viability, T/C",[7],100%
same,"viability, T/C",[8],108%
same,"viability, T/C",[9],97.7%
same,"viability, T/C",[10],104%
same,"viability, T/C",[11],105%
same,"viability, T/C",[12],94.2%
same,"viability, T/C",[13],114%
same,"viability, T/C",[14],95.7%
same,"viability, T/C",[15],90.2%
same,"viability, T/C",[16],95%
same,"viability, T/C",[17],110%
same,"viability, T/C",[18],101%
same,"viability, T/C",[19],102%
same,"viability, T/C",[20],85.4%
same,"viability, T/C",[21],107%
same,"viability, T/C",[22],98.9%
same,"viability, T/C",[23],93.5%
same,"viability, T/C",[24],94.1%
same,"viability, T/C",[25],97.6%
same,"viability, T/C",[26],96%
same,"viability, T/C",[27],94.1%
same,"viability, T/C",[28],87.7%
same,"viability, T/C",[29],89.9%
same,"viability, T/C",[30],90.6%
same,"viability, T/C",[31],98.8%
same,"viability, T/C",[32],75.3%
same,"viability, T/C",[33],77.8%
same,"viability, T/C",[34],78.7%
same,"viability, T/C",[35],85.8%
same,"viability, T/C",[36],73.8%
